System: Herpes simplex virus
Assay: Administration to human subjects with Herpes symptoms (case reports)
Assay type: in vivo
Settings: case 3: taken for years by man and woman positive for HSV 1 and 2
Protocol: • 1. Frequent Genital herpes outbreaks—A person from Karnataka, India, suffers from severe blistering, pain and burning around the pubic region and genitals due to one or more strains of the Herpes virus. The composition of the invention as disclosed in Example 1 is administered. […] Tiny pimple-like outbreaks around lips—A person—starts experiencing tiny pimples on their lips which later appear like blisters. Blood tests show high titer from HSV 1 antibodies. […] Each tests positive for HSV 1 and 2. […] A person reports the presence of abnormal cells along with the presence of HPV. These cells then develop into “pre-cancerous” cells. This subject daily ingests the composition of Example 1 for 4 months. […] After administration of the composition of Example 1 for over 6 months, the results for HPV come back negative. • 6. A person reports warts on their hands for about 6 years which they remove with laser therapy. This burns the skin and leaves scars. […] A person reports an HPV infection for 5 years. Within the first 6 months of daily ingestion of the composition of Example 1, all tests for HPV are negative and no recurrence is shown. • 8. A person ingests the composition of Example 1 along with an alkaline diet. This subject suffers from larger warts (around 10 in number). […]

Q: `Nc1nc2c(ncn2COCCO)c(=O)[nH]1` [acyclovir] was tested. Which “outcome of previous antiviral treatment” value did it give?
A: The value was “little success”.

— patent US10744175B2, “Herbal composition for the treatment of Herpes” (priority 2016, dated 2020)
